Laboratory results taken from US12391706B2, “Multi-target tyrosine kinase inhibitor” (SHENZHEN NEPTUNUS PHARMACEUTICAL RESEARCH INSTITUTE CO., …, priority 2020, dated 2025).

Columns and labels:
[1] = tested on: H82; assay: H82 nude mouse xenograft model; format: in vivo; conditions: 50 mg/kg * 14 d, i.g, QD
Method: (§1) Test method: 5×10^6 MKN-45 gastric cancer cells were inoculated under the fat pad of the right rib of nude mice, and the tumor formation was observed. Two weeks after the inoculation, the tumor-bearing mice were divided into groups and orally administered with td32-4, td32-4P3, td32-4P6, td32-4P9, and td32-4P10 at a dose of 100 mg·kg^−1, once a day for 14 days, respectively. Tumor volumes were measured with a caliper and recorded.
(§2) The compound td32-4P10 was selected for in vivo activity evaluation. The tumor inhibitory activity data of td32-4P10 were tested in MV-4-11, H358 and H82 nude mouse xenograft model, respectively. Meanwhile, the changes in tumor volume during the treatment, and the changes in body weight of the nude mice induced by the drug during the treatment were measured. After the treatment, the tumor weights were counted. The tumor anatomical images after the treatment were recorded.

[2] = tested on: H358; assay: H358 nude mouse xenograft model; format: in vivo; conditions: 50 mg/kg * 21 d, i.g, QD
Method: as §1, §2

[3] = Solubility test (water), Chinese Pharmacopoeia 2015; format: physicochemical; conditions: 25° C.±2° C., dissolution within 30 minutes
Method: The series of compounds synthesized in Examples 1-24 were subjected to solubility test (water), according to the solubility test methods in Chinese Pharmacopoeia, 2015 Edition. The specific test operations and evaluation criteria are as follows: An appropriate amount (1 mg-10 mg) of finely powdered compound was weighed, placed in a certain volume of solvent at 25° C.±2° C., and shaken vigorously for 30 seconds every 5 minutes; the dissolution within 30 minutes was observed. It was considered completely dissolved if there were no visible particles or droplets of the solute. [table]

[4] = In vivo transformation / pharmacokinetic study in SD rats; conditions: for time to almost complete conversion into td32-4 in vivo: oral 200 mg·kg^−1
From the text: The compounds of the present invention have improved solubility by introducing a hydrophilic functional group into the structure of td32-4 through an ester bond. After oral administration, the compounds need to be converted into td32-4 in the physical and chemical environment in vivo to exert pharmacological effects. In this example, some representative compounds were selected for in vivo pharmacokinetic studies in SD rats, and compared with direct oral administration of td32-4. The experiment was performed at high (200 mg·kg^−1) and low (10 mg·kg^−1) doses. 5 mg of the test sample was placed into a glass bottle. 1 mL of DMA (dimethylacetamide) was added and vortexed to dissolve the solid completely. 1.5 mL of PEG400 was added, vortexed and mixed well. 2.5 mL of physiological saline for injection was added, vortexed, mixed well. The mixture was filtered with a filter membrane (PALL, Nylon, 0.45 μm) to obtain a colorless and clear solution. The test sample was administered to experimental animals (n=3) by tail vein injection at a dose of 5 mg·kg^−1 (1 mg·mL^−1). An appropriate amount of the test sample was placed into a glass bottle. PEG400 was added, vortexed and mixed well. The mixture was sonicated to obtain a clear solution. The test sample was administered to experimental animals (n=3) by gavage at a dose of 10 mg·kg^−1 and 200 mg·kg^−1, respectively. SD rats were weighed before administration, and the dose was calculated according to the body weight. They were administered by intravenous injection or by gavage. Blood was collected through the submandibular vein or other suitable ways, at intervals of 0, 0.083, 0.25, 0.5, 1, 2, 4, 8, 12, 24 hours. About 0.20 mL of each sample was collected, anticoagulated with EDTA-K2, and placed on ice after collection, and centrifuged within 1 hour to separate plasma (centrifugation conditions: 6800 g, 6 minutes, 2-8° C.). Plasma samples were stored in a −80° C. freezer prior to analysis. The blood drug concentration of each sample was analyzed using LC-MS/MS. […]

[5] = tested on: MKN-45 gastric cancer cells; assay: Gastric cancer cell MKN45 xenograft model; format: in vivo, nude mice; conditions: oral 100 mg·kg^−1 once a day for 14 days
From the text: • 1. Compounds (td32-4, td32-4P3, td32-4P6, td32-4P9, td32-4P10) were selected for in vivo activity evaluation at a single concentration. The animal model was gastric cancer cell MKN45 xenograft model.
as §1

[6] = tested on: MV-4-11; assay: MV-4-11 nude mouse xenograft model; format: in vivo; conditions: MV-4-11 xenograft, 50 mg/kg * 21 d, i.g, QD
Method: as §1, §2

[7] = tested on: multiple tumor cell models; conditions: cited from earlier work
[8] = cited from earlier work
[9] = molecular target: c-Met (Homo sapiens, UniProt P08581); conditions: cited from earlier work
[10] = tested on: VEGFR; conditions: cited from earlier work
[11] = low dose (10 mg·kg^−1), solution; cited from earlier work
[12] = molecular target: c-Kit (Homo sapiens, UniProt P10721); conditions: cited from earlier work
Chain of c-Kit (P10721 26-976): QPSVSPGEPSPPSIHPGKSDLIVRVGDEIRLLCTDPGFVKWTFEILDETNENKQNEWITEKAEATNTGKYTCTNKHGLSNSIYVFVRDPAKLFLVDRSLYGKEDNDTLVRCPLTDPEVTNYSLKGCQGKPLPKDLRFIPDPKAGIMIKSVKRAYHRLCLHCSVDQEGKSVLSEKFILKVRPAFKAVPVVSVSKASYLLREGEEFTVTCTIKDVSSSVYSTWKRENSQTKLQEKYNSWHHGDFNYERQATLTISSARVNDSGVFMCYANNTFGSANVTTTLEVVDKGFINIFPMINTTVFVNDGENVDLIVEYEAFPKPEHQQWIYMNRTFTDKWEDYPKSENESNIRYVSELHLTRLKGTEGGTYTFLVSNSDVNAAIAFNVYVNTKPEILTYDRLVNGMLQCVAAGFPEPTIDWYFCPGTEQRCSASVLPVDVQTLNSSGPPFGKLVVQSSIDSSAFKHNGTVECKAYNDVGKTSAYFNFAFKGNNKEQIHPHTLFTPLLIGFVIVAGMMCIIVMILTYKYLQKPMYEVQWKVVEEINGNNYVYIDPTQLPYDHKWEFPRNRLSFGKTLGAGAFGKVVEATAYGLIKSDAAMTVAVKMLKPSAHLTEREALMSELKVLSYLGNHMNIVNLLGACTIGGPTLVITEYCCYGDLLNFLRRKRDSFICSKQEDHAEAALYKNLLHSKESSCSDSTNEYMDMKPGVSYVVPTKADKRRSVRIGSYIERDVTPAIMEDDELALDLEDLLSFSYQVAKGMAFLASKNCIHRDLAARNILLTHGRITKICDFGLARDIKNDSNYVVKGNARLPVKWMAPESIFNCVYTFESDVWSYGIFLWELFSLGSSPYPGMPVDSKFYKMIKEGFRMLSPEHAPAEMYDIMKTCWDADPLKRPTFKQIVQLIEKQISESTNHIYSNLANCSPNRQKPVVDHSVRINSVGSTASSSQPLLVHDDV

Chain of c-Met (P08581 25-1390): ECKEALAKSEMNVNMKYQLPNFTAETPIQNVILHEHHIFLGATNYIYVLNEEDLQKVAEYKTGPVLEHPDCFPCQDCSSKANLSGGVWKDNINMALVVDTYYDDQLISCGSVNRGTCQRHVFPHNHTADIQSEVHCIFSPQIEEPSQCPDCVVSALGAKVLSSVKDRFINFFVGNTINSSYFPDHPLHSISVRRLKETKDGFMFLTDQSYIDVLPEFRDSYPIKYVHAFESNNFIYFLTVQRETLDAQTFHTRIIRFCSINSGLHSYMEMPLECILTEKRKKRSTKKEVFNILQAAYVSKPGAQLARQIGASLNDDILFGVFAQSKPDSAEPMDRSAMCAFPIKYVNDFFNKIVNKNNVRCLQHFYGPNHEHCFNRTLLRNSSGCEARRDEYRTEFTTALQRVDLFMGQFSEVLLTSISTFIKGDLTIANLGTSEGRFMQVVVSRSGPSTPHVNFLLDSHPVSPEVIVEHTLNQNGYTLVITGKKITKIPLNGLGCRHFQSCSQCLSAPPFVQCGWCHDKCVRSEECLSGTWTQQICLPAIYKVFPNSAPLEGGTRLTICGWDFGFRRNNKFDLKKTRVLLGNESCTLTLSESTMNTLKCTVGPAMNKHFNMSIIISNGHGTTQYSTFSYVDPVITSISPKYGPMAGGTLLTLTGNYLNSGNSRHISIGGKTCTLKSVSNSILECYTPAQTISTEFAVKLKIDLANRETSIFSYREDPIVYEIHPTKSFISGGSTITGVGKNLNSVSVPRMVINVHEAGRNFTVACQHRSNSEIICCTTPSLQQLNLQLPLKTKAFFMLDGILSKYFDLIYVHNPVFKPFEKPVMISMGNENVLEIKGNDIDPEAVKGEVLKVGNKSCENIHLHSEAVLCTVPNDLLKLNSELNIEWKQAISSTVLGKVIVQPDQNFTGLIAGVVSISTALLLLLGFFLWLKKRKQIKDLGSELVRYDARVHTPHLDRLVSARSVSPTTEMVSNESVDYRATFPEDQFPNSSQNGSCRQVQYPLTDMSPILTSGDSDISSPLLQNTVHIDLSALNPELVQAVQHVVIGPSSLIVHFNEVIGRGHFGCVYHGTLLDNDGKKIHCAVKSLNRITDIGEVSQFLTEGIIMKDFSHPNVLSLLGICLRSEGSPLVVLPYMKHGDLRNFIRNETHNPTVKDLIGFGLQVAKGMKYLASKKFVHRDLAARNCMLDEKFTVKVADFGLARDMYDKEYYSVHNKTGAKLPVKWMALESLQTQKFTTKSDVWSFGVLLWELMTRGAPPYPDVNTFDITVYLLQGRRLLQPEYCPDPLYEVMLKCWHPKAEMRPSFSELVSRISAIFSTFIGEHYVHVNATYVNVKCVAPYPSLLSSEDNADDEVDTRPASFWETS

| time to almost complete conversion into td32-4 in vivo [4] | conversion into td32-4 in vivo ([4]; oral 10 mg·kg^−1) | Compound | T/C (%) [1] | TGI (%) [1] | T/C (%) [2] | TGI (%) [2] | Water solubility test Result [3] | tumor inhibitory effect (tumor volume) [5] | T/C (%) [6] | TGI (%) [6] | anti-proliferative activity [7] | water solubility [8] | inhibitory activity [9] | inhibitory activity [10] | oral bioavailability F [11] | inhibitory activity [12] |
| --- | --- | --- | --- | --- | --- | --- | --- | --- | --- | --- | --- | --- | --- | --- | --- | --- |
| ≤ 18 h |  | CC(C)C(N)C(=O)OCCn1cc(-c2cc3nccc(Oc4ccc(NC(=O)C5(C(=O)Nc6ccc(F)cc6)CC5)cc4F)c3s2)cn1 (stereo not drawn) [td32-4P10, 2-(4-(7-(2-fluoro-4-(1-((4-fluorophenyl)carbamoyl)cyclopropane-1-carboxamide)phenoxy)thieno[3,2-b]pyridin-2-yl)-1H-pyrazolyl-1-yl)ethyl valinate] | 11% | 92% | 6.6% | 112% | C (1 g of solute is soluble in 10~30 mL of sovent) | potent tumor inhibitory effect | 3.4% | 109% |  |  |  |  |  |  |
|  |  | O=C(Nc1ccc(F)cc1)C1(C(=O)Nc2ccc(Oc3ccnc4cc(-c5cnn(CCO)c5)sc34)c(F)c2)CC1 [td32-4] |  |  |  |  | G (1 g of solute is insoluble in 10000 mL of solvent) | did not show significant activity |  |  | potent anti-proliferative activity | extremely poor water solubility | potent inhibitory activity | potent inhibitory activity | 71.6% | potent inhibitory activity |
| ≤ 18 h | rapidly converted | CN(C)CC(=O)OCCn1cc(-c2cc3nccc(Oc4ccc(NC(=O)C5(C(=O)Nc6ccc(F)cc6)CC5)cc4F)c3s2)cn1 [td32-4P3, 2-(4-(7-(2-fluoro-4-(1-((4-fluorophenyl)carbamoyl)cyclopropane-1-carboxamide)phenoxy)thieno[3,2-b]pyridin-2-yl)-1H-pyrazolyl-1-yl)ethyldimethyl glycinate] |  |  |  |  | C (1 g of solute is soluble in 10~30 mL of sovent) | potent tumor inhibitory effect |  |  |  |  |  |  |  |  |
